One assay concerns the target T1, Human GPR120 short form (Homo sapiens, UniProt Q5NUL3).
T1 construct: expressed in transfected cells
T1 sequence (Q5NUL3 1-361): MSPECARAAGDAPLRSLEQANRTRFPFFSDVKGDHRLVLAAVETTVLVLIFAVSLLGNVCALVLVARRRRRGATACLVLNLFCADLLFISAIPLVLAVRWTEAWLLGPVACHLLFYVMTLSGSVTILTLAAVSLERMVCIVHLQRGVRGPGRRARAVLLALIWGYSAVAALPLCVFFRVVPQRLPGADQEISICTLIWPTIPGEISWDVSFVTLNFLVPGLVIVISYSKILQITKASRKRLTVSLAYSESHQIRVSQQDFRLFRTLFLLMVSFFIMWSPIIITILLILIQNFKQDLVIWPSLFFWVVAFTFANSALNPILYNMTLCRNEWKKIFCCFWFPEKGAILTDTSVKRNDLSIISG
Nature of the assay: Human GPR120 calcium flux assay (FLIPR), Procedure Calcium A. Type of assay: cell-based. As to conditions: HEK-293 cells expressing human GPR120 short form, 2500 cells/well; read-out: GPR120 Ca2+ Assay A EC50. In outline:
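HEK293 cells stably expressing the short isoform (NM_001195755.1), 2500/well, starved 1 h, then loaded with Fluo-4 NW plus probenecid (30 min 37 °C, 15 min RT). Compound solutions 0.012–100 μM, 0.2% DMSO final; FLIPR read 300 s after addition. EC50 from Fmax−Fmin fitted to variable-slope sigmoid (Hill <2).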

The target of assay [1] is T2, long form of human GPR120 (Homo sapiens, UniProt Q5NUL3).
T2 construct: host or cells: PathHunter CHO-K1 GPR120 β-Arrestin Cell Line
Nature of the assay: Human GPR120 DiscoveRx PathHunter Beta-Arrestin assay, Procedure β-arrestin A. As to conditions: PathHunter CHO-K1 GPR120 β-Arrestin cell line, 3000 cells per well, read-out: hGPR120 β-arrestin A EC50. It counts as cell-based. An excerpt: The binding of an agonist (medium/long chain fatty acids or small molecule agonists) to the G-protein-coupled receptor GPR120 activates phospholipase C, leading to release of intracellular Ca^+2 through the generation of inositol 1,4,5-trisphosphate (InsP3 or IP3). GPR120 activation can also trigger intracellular signaling via recruitment of Beta-Arrestin. In the present method, agonist-induced activation of the human GPR120 receptor is monitored through the use of PathHunter CHO-K1 GPR120 Beta-Arrestin Cell Line engineered by DiscoveRx, as detailed below. The cell lines are designed to co-express both the ProLink/Enzyme Donor (PK)-tagged GPCR and the Enzyme […] (EA)-tagged Beta-Arrestin fusion proteins. Upon GPR120 receptor stimulation/activation, the EA-tagged Beta-Arrestin portion is translocated to the tagged receptor, where the two enzyme fragments are brought within close proximity. Under these conditions, these fragments can interact and form an active Beta-gal enzyme complex through Enzyme Fragment Complementation (EFC). This active Beta-gal complex can enzymatically hydrolyse the substrate to produce a detectable light signal; therefore, activation as a function of agonist concentration can be expressed as an EC50 value to determine relative compound activities. This in vitro assay therefore serves to assess compound agonist activity of the GPR120. Procedure β-Arrestin A: In Procedure β-arrestin A, the cell used were PathHunter CHO-K1 GPR120 β-Arrestin Cell Line, expressing the long form of human GPR120 (Genbank accession number NM 181745), with 3000 cells per well. Procedure β-Arrestin B: In Procedure 3-arrestin B the cells used were PathHunter CHO-K1 GPR120S β-Arrestin Cell Line, expressing the short form of the GPR120 receptor (Accession #NM_181745), with 5000 cells/well. Assay Procedure:
The selected CHO-K1 GPR120 β-Arrestin cells were cultured in Ham's F12 media supplemented with 10% fetal bovine serum (FBS), 1% Glutamine, lx p/s, 800 μg/mL G418 and 300 μg/mL Hygromycin B (for selection). Cell stocks were maintained and grown in a sub-confluent state using standard cell culture procedures. The day before the experiment, the cells were harvested with non-enzymatic cell dissociation buffer and re-suspended in complete growth media at the desired concentration. A Corning 384-plate was then seeded with the proper number of cells in a volume of 25 μL, per well. The seeded plates were incubated overnight at 37° C.
On the day of the experiment, the Assay Buffer containing (a) HBSS with Ca^++ and Mg^++, (b) 20 mM HEPES, and (c) 0.1% BSA stabilizer (pH 7.4) was prepared. The growth medium was gently removed from the cell plates and 20 μL of Assay Buffer added to each well. The plate was then incubated at 37° C. for 60 min. Test compounds were serially diluted in Assay Buffer to desired concentrations (more particularly to one or more of the following μM concentrations: 25, 12.5, 6.25, 3.125, 1.5625, 0.78125, 0.390625, 0.1953125, 0.09765625, 0.048828125, 0.024414063, 0.012207031). Five μL of compound dilution was then added to each well and the plate incubated at 37° C. for 90 min. The detection reagents were prepared according to the manufacture's instruction. Twelve μL of the detection reagents were added to each well and the plate incubated at room temperature for 60 min.
The plates were read on an EnVision instrument, using Protocol name: Luminescence, Plate type: 384 Costar, Measurement height: 3 mm, Measurement time: 1 s, Aperture: 384 Plate aperture. The % activity relative to the positive control was calculated using the following equation:
The % Activity values were plotted versus the concentration of test compound and fitted to a sigmoidal dose-response curve with a Hill slope=1 (fixed value) using nonlinear regression with GraphPad Prism 5.0 to calculate the EC50 values. […]

T2 sequence (Q5NUL3 1-377 isoform Q5NUL3-1): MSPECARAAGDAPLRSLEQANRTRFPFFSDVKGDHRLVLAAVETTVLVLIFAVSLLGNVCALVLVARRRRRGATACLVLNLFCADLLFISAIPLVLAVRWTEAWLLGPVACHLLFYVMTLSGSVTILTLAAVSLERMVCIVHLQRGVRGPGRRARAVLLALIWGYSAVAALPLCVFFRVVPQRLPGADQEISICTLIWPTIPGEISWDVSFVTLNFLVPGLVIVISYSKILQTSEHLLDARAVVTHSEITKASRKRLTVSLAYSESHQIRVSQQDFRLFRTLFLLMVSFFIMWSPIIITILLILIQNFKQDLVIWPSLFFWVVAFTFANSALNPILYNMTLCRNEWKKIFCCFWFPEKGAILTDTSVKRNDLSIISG
T2 sequence (P32121 whole entry partner): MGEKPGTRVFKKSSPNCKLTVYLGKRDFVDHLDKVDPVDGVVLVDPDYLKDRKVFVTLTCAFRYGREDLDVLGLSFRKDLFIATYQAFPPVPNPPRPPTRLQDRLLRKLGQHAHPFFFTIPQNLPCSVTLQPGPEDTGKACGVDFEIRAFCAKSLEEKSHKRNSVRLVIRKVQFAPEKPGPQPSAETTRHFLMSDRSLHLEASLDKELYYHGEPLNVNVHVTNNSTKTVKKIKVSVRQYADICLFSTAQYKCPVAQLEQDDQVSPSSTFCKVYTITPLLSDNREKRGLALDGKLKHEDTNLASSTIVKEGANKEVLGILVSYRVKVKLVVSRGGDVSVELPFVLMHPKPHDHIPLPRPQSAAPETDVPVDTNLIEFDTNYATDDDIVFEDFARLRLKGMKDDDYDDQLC

A word on the EC50: it is the concentration needed to bring the measured effect to its halfway point. Turning to `CCc1ccc(-c2cc(Cl)sc2COc2c(F)cc(CCC(=O)O)cc2F)cc1` [Cpd 8, 3-(4-((5-chloro-3-(4-ethylphenyl)thiophen-2-yl)methoxy)-3,5-difluorophenyl)propanoic acid], the EC50 on Human GPR120 short form was found to be 114 nM; in assay [1], 167 nM.

On to `CCc1ccc(-c2cc(Cl)sc2COc2c(F)cc(CCCO)cc2F)cc1` [Cpd 9, 3-(4-[[5-chloro-3-(4-ethylphenyl)thiophen-2-yl]methoxy]-3,5-difluorophenyl)propan-1-ol], for which the EC50 was 117 nM at Human GPR120 short form and 203 nM in assay [1].

Take `CCc1ccc(-c2cc(Cl)sc2COc2ccc(CCC(=O)O)c(F)c2F)cc1` [Cpd 11, 3-(4-[[5-chloro-3-(4-ethylphenyl)thiophen-2-yl]methoxy]-2,3-difluorophenyl)propanoic acid]: the values for the EC50 (at Human GPR120 short form; in assay [1]) were 126 nM and 222 nM, respectively.

As to `CCc1ccc(-c2cc(F)sc2COc2ccc(CCC(=O)O)c(F)c2F)cc1` [Cpd 12, 3-(4-[[3-(4-ethylphenyl)-5-fluorothiophen-2-yl]methoxy]-2,3-difluorophenyl)propanoic acid], the figures for the EC50 (at Human GPR120 short form; in assay [1]) were 135 nM and 125 nM, respectively.

As for `CCc1ccc(-c2cc(C)sc2COc2ccc(CCC(=O)O)c(C)c2C)cc1` [Cpd 13, 3-(4-((3-(4-ethylphenyl)-5-methylthiophen-2-yl)methoxy)-2,3-dimethylphenyl)propanoic acid], the EC50 at Human GPR120 short form is 163 nM; in assay [1] it was 498 nM.

Turning to `CCc1ccc(-c2cc(Cl)sc2COc2ccc(CCCO)c(F)c2F)cc1` [Cpd 14, 3-(4-[[5-chloro-3-(4-ethylphenyl)thiophen-2-yl]methoxy]-2,3-difluorophenyl)propan-1-ol], the EC50 was 163 nM at Human GPR120 short form and 265 nM in assay [1].

In the case of `OCCCc1cc(F)c(OCc2sc(Cl)cc2-c2ccc(Cl)cc2)c(F)c1` [Cpd 19, 3-(4-[[5-chloro-3-(4-chlorophenyl)thiophen-2-yl]methoxy]-3,5-difluorophenyl)propan-1-ol], the EC50 on Human GPR120 short form was 634 nM; in assay [1], 108 nM.

For the molecule `CCc1ccc(-c2ccsc2COc2c(F)cc(CCCO)cc2F)cc1` [Cpd 20, 3-(4-[[3-(4-ethylphenyl)thiophen-2-yl]methoxy]-3,5-difluorophenyl)propan-1-ol], the EC50 at Human GPR120 short form turned out to be 657 nM; in assay [1], 168 nM.

Regarding `O=C(O)CCc1cc(F)c(OCc2c(C3=CCCC3)csc2C(F)(F)F)c(F)c1` [Cpd 31, 3-(4-((4-(cyclopent-1-en-1-yl)-2-(trifluoromethyl)thiophen-3-yl)methoxy)-3,5-difluorophenyl)propanoic acid], the EC50 at Human GPR120 short form turned out to be 46 nM; in assay [1], 503 nM.

On to `CCc1ccc(-c2sc(C)c(C(F)(F)F)c2COc2c(F)cc(CCCO)cc2F)cc1` [Cpd 32, 3-(4-[[2-(4-ethylphenyl)-5-methyl-4-(trifluoromethyl)thiophen-3-yl]methoxy]-3,5-difluorophenyl)propan-1-ol], for which the results for the EC50 (at Human GPR120 short form; in assay [1]) were 48 nM and 31 nM, respectively.

As to `COc1ccc(-c2csc(C(F)(F)F)c2COc2c(F)cc(CCC(=O)O)cc2F)cc1` [Cpd 34, 3-(3,5-difluoro-4-((4-(4-methoxyphenyl)-2-(trifluoromethyl)thiophen-3-yl)methoxy)phenyl)propanoic acid], the figures for the EC50 (at Human GPR120 short form; in assay [1]) were 65 nM and 208 nM, respectively.

`O=C(O)CCc1cc(F)c(OCc2c(-c3ccc(Cl)cc3)csc2C(F)(F)F)c(F)c1` [Cpd 35, 3-(4-((4-(4-chlorophenyl)-2-(trifluoromethyl)thiophen-3-yl)methoxy)-3,5-difluorophenyl)propanoic acid]: the EC50 on Human GPR120 short form stood at 70 nM; in assay [1] it was 270 nM.

In the case of `COc1ccc(-c2csc(C(F)(F)F)c2COc2c(F)cc(CCCO)cc2F)cn1` [Cpd 38, 3-(3,5-difluoro-4-((4-(6-methoxypyridin-3-yl)-2-(trifluoromethyl)thiophen-3-yl)methoxy)phenyl)propan-1-61], the EC50 came out at 101 nM at Human GPR120 short form and 71 nM in assay [1].
